Like-named read-outs stand apart in the source and are kept apart here.
Columns and labels:
[1] = test system: Key Grass and Sedge Weeds as well as Grass Crops; assay: Post-Emergent Test II: postemergent herbicidal activity, visual rating after 14 d (Table 8); format: in vivo; settings: post-emergence, 336 h; for pest or weed control at 35 g/ha: 35 g ai/ha; for pest or weed control at 70 g/ha: 70 g ai/ha; for pest or weed control at 140 g/ha: 140 g ai/ha
Method in brief: (§1)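 Visual scoring at 14 d, 0 (no injury) to 100 (complete kill), relative to untreated plants. Postemergent overhead track-sprayer application, 187 L/ha, at a top rate plus serial ½×–1/16× rates, to plants grown 7–21 d at about 23–29° C day under a 15 h photoperiod, then subirrigated.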

[2] = test system: Key Broadleaf Weed and Crop Species; assay: Post-Emergent Test II: postemergent herbicidal activity, visual rating after 14 d (Table 7); format: in vivo; settings: post-emergence, 336 h; for pest or weed control at 35 g/ha: 35 g ai/ha; for pest or weed control at 70 g/ha: 70 g ai/ha; for pest or weed control at 140 g/ha: 140 g ai/ha
Method in brief: as §1

[3] = barnyardgrass (Echinochloa crus-galli), read-out: Visual Growth Reduction (%) 14 Days After Application, ECHCG
[4] = giant foxtail (Setaria faberi), read-out: Visual Growth Reduction (%) 14 Days After Application, SETFA
[5] = maize, corn (Zea mays), read-out: Visual Growth Reduction (%) 14 Days After Application, ZEAMX
[6] = rice (Oryza sativa), read-out: Visual Growth Reduction (%) 14 Days After Application, ORYSA
[7] = wheat, spring (Triticum aestivum), read-out: Visual Growth Reduction (%) 14 Days After Application, TRZAS
[8] = yellow nutsedge (Cyperus esculentus), read-out: Visual Growth Reduction (%) 14 Days After Application, CYPES
[9] = ABUTH: velvetleaf (Abutilon theophrasti), read-out: Visual Growth Reduction (%) 14 Days After Application ABUTH
[10] = AMARE: redroot pigweed (Amaranthus retroflexus), read-out: Visual Growth Reduction (%) 14 Days After Application AMARE
[11] = BRSNN: oilseed rape, canola (Brassica napus), read-out: Visual Growth Reduction (%) 14 Days After Application BRSNN
[12] = CHEAL: lambsquarters (Chenopodium album), read-out: Visual Growth Reduction (%) 14 Days After Application CHEAL
[13] = EPHHL: wild poinsettia (Euphorbia heterophylla), read-out: Visual Growth Reduction (%) 14 Days After Application EPHHL
[14] = HELAN: sunflower (Helianthus annuus), read-out: Visual Growth Reduction (%) 14 Days After Application HELAN

## COC(=O)c1nc(-c2ccc(F)c3c2OCO3)cc(N)c1Cl [Compound 92]
[1]; [3]
  pest or weed control at 35 g/ha: 0 to 29%
  pest or weed control at 70 g/ha: 0 to 29%
  pest or weed control at 140 g/ha: 0 to 29%
[1]; [4]
  pest or weed control at 35 g/ha: 0 to 29%
  pest or weed control at 70 g/ha: 0 to 29%
  pest or weed control at 140 g/ha: 0 to 29%
[1]; [5]
  pest or weed control at 35 g/ha: 0 to 29%
  pest or weed control at 70 g/ha: 0 to 29%
  pest or weed control at 140 g/ha: 0 to 29%
[1]; [6]
  pest or weed control at 35 g/ha: 0 to 29%
  pest or weed control at 70 g/ha: 0 to 29%
  pest or weed control at 140 g/ha: 0 to 29%
[1]; [7]
  pest or weed control at 35 g/ha: 0 to 29%
  pest or weed control at 70 g/ha: 0 to 29%
  pest or weed control at 140 g/ha: 0 to 29%
[1]; [8]
  pest or weed control at 35 g/ha: 0 to 29%
  pest or weed control at 70 g/ha: 0 to 29%
  pest or weed control at 140 g/ha: 0 to 29%
[2]; [9]
  pest or weed control at 35 g/ha: 60 to 74%
  pest or weed control at 70 g/ha: 85 to 94%
  pest or weed control at 140 g/ha: 85 to 94%
[2]; [10]
  pest or weed control at 35 g/ha: 95 to 100%
  pest or weed control at 70 g/ha: 95 to 100%
  pest or weed control at 140 g/ha: 95 to 100%
[2]; [11]
  pest or weed control at 35 g/ha: 30 to 44%
  pest or weed control at 70 g/ha: 60 to 74%
  pest or weed control at 140 g/ha: 75 to 84%
[2]; [12]
  pest or weed control at 35 g/ha: 95 to 100%
  pest or weed control at 70 g/ha: 85 to 94%
  pest or weed control at 140 g/ha: 95 to 100%
[2]; [13]
  pest or weed control at 35 g/ha: 0 to 29%
  pest or weed control at 70 g/ha: 0 to 29%
  pest or weed control at 140 g/ha: 0 to 29%
[2]; [14]
  pest or weed control at 35 g/ha: 60 to 74%
  pest or weed control at 70 g/ha: 60 to 74%
  pest or weed control at 140 g/ha: 75 to 84%

— US9149038B2, “4-amino-6-(heterocyclic)picolinates and 6-amino-2-(heterocyclic)pyrimidine-4-carboxylates and their use as herbicides” (Dow AgroSciences LLC, priority 2013, dated 2015)
